# Measured values published in patent US10669290B2, “Beta-lactamase inhibitors” (priority 2012, dated 2020).
# Experiments:
# K.P. 156319 KPC-3 = assay: Broth microdilution MIC, K. pneumoniae 156319; type: cell-based; conditions: Klebsiella pneumoniae; fixed meropenem 4 μg/mL, CAMHB, 16-20 hours 37° C.; read-out: MIC of exemplary compounds in presence of fixed β-lactams, Fixed Mero, K.P. 156319 KPC-3
# K.P. A-1797 KPC-2 VIM-4 = assay: Broth microdilution MIC, K. pneumoniae A-1797; type: cell-based; conditions: Klebsiella pneumoniae; fixed meropenem 4 μg/mL, CAMHB, 16-20 hours 37° C.; read-out: MIC of exemplary compounds in presence of fixed β-lactams, Fixed Mero, K.P. A-1797 KPC-2 VIM-4
# E. cl 144200 p99 AmpC = assay: Broth microdilution MIC, E. cloacae 144200; type: cell-based; conditions: Enterobacter cloacae; fixed ceftazidime 4 μg/mL, CAMHB, 16-20 hours 37° C.; read-out: MIC of exemplary compounds in presence of fixed β-lactams, Fixed CAZ, E. cl 144200 p99 AmpC
# Outline: (§1)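 In this CLSI broth microdilution format, plates hold the test compound titrated 2-fold (32 to 0.25 μg/mL final) in CAMHB plus a fixed 4 μg/ml β-lactam. Incubation runs 16-20 h at 37° C, and the MIC is scored by eye.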
# E. coli ESBL4 CTX-M-15 = assay: Broth microdilution MIC, E. coli ESBL4; type: cell-based; conditions: Escherichia coli, ESBL4CTXM15; fixed ceftazidime 4 μg/mL, CAMHB, 16-20 hours 37° C.; read-out: MIC of exemplary compounds in presence of fixed β-lactams, Fixed CAZ, E. coli ESBL4 CTX-M-15
# Outline: as §1
# P. aerug. Ps296 VIM-2 = assay: Broth microdilution MIC, P. aeruginosa Ps296; type: cell-based; conditions: Pseudomonas aeruginosa; fixed meropenem 4 μg/mL, CAMHB, 16-20 hours 37° C.; read-out: MIC of exemplary compounds in presence of fixed β-lactams, Fixed Mero, P. aerug. Ps296 VIM-2
# Outline: as §1
# S. aureus MSSA-7 PC-1 = assay: Broth microdilution MIC, S. aureus MSSA-7; type: cell-based; conditions: Staphylococcus aureus, fixed piperacillin 4 μg/mL, CAMHB, 16-20 hours 37° C., read-out: MIC of exemplary compounds in presence of fixed β-lactams, Fixed Pip, S. aureus MSSA-7 PC-1
# p99 AmpC = biological target: T1, p99 AmpC (Enterobacter cloacae, UniProt P05364); assay: β-Lactamase inhibition, p99 AmpC (nitrocefin substrate); type: biochemical; conditions: nitrocefin 100 μM, 486 nm, 15 min preincubation 37° C., PBS pH 7.4; read-out: IC50 AmpC (Class C)
# T1 construct: made in house; host or cells: E. coli BL21 (DE3)
# T1 sequence (P05364 21-381): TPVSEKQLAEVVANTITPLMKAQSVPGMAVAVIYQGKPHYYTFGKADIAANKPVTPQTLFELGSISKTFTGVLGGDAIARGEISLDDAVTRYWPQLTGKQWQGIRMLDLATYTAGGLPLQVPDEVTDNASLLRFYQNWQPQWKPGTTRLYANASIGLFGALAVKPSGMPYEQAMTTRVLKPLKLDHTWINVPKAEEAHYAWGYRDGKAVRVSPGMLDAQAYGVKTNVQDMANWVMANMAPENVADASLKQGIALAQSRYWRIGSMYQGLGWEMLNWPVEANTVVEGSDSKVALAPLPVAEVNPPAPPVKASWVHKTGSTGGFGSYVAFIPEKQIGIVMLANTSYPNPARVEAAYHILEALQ
# Procedure: For SHV-5, Kpc-2, p99AmpC and OXA-1 β-lactamases, E. coli BL21 (DE3) bacterial cells carrying expression plasmids (expressed as native untagged proteins) for the individual β-lactamases were grown in 1 L of Superbroth (Teknova Inc. Hollister, Calif.) supplemented with 100 μg/ml kanamycin selection and 1×5052 (0.5% glycerol, 0.05% glucose and 0.2% α-lactose) at 35° C. for 18-20 hours. Cells were harvested by centrifugation (4,000×g, 4° C., 20 min), resuspended in 50 ml of 10 mM HEPES pH 7.5 ( 1/20 of the initial volume). The cells were lysed by sonication (5 pulses of 45 seconds) at 45 W on ice. The lysates were clarified by centrifugation at 10,000×g for 40 minutes at 4° C. Samples were diluted 5-fold in 50 mM sodium acetate pH 5.0, stored overnight at 4° C., after which they were centrifuged at 10,000×g for 30 minutes to clarify, and filtered through 0.45 µm filters. The samples were loaded onto a 5 ml Capto S sepharose cation exchange column (GE Healthcare) pre-equilibrated with 50 mM sodium acetate pH 5.0. The column was washed with 5 column volumes of 50 mM sodium acetate pH 5.0 to wash out unbound protein and a linear gradient of NaCl (0 to 500 mM) was used to elute the protein (over 16 CV) from the column. Fractions were assayed for β-lactamase activity using Centa (Calbiochem, Gibbstown, N.J.) or Nitrocefin (EMD Millipore chemicals, Darmstadt, Germany) as a reporter β-lactamase substrate for activity in the isolated fractions. Active fractions were pooled, concentrated and further purified by gel filtration chromatography on a Superdex 75 prep grade gel filtration column (GE Healthcare, Piscataway, N.J.) pre-equilibrated in 50 mM Hepes pH 7.5, 150 mM NaCl. Active fractions were pooled concentrated, quantitated by BCA protein determination (Thermo Scientific, Rockford, Ill.), dialyzed into PBS and frozen at −80° C. in 20% glycerol until use.
# An equal volume of diluted enzyme stock was added, and the plates were incubated at 37° C. for 15 min. Nitrocefin was used as substrate for p99 AmpC, VIM-2 and OXA-1 and dispensed into each well at a final concentration of 100 μM. Absorbance at 486 nm was immediately monitored for 10 min using a Biotek Powerwave XS2 microplate spectrophotometer using the GEN5 software package (Biotek Instruments, Winooski Vt.). In an analogous fashion, imipenem was used as substrate for Kpc-2 and Cefotaxime was used for SHV-5, while changes in absorbance upon hydrolysis of the β-lactam ring were monitored at 300 nm and 260 nm respectively in UV-transparent 96-well microtiter assay plates. Maximum rates of hydrolysis were compared to those in control wells (without inhibitors), and percentages of enzyme inhibition were calculated for each concentration of inhibitor. The concentration of inhibitor needed to reduce the initial rate of hydrolysis of substrate by 50% (IC50) was calculated as the residual activity of β-lactamase at 486 nm using GraFit version 7 kinetics software package (Erithacus Software, Surrey, UK).
# Using the methodology described above, examples of the current invention were evaluated for their ability to inhibit β-lactamase enzymes from all four Ambler classifications (A through D). […] NT=Not tested.
SMILES,MIC (K.P. 156319 KPC-3) [µg/mL],MIC (K.P. A-1797 KPC-2 VIM-4) [µg/mL],MIC (E. cl 144200 p99 AmpC) [µg/mL],MIC (E. coli ESBL4 CTX-M-15) [µg/mL],MIC (P. aerug. Ps296 VIM-2) [µg/mL],MIC (S. aureus MSSA-7 PC-1) [µg/mL],IC50 (p99 AmpC) [nM]
"C[C@H](N)CN[C@H]1CC[C@H](CC(=O)N[C@H]2Cc3cccc(C(=O)O)c3OB2O)CC1 [Example 53, (R)-3-(2-(trans-4-((S)-2-aminopropylamino)cyclohexyl)acetamido)-2-hydroxy-3,4-dihydro-2H-benzo[e][1,2]oxaborinine-8-carboxylic acid]",< 4,< 4,< 4,< 4,< 4,< 4,–
"N[C@H]1CC[C@H](CCC(=O)N[C@H]2Cc3cccc(C(=O)O)c3OB2O)CC1 [Example 21, (R)-3-(3-(trans-4-aminocyclohexyl)propanamido)-2-hydroxy-3,4-dihydro-2H-benzo[e][1,2]oxaborinine-8-carboxylic acid]",< 4,> 32,< 4,< 4,8 to 32,< 4,–
"CC(C)NCCN[C@H]1CC[C@H](CC(=O)N[C@H]2Cc3cccc(C(=O)O)c3OB2O)CC1 [Example 71, (R)-2-hydroxy-3-(2-(trans-4-(2-(isopropylamino)ethylamino)cyclohexyl)acetamido)-3,4-dihydro-2H-benzo[e][1,2]oxaborinine-8-carboxylic acid]",< 4,< 4,< 4,< 4,< 4,< 4,–
"N[C@@H](C(=O)N[C@H]1Cc2cccc(C(=O)O)c2OB1O)C1CCCCC1 [Example 42, (R)-3-((R)-2-amino-2-cyclohexylacetamido)-2-hydroxy-3,4-dihydro-2H-benzo[e][1,2]oxaborinine-8-carboxylic acid]",< 4,8 to 32,< 4,< 4,< 4,8 to 32,–
"N=C(N)N1CCN([C@H]2CC[C@H](CC(=O)N[C@H]3Cc4cccc(C(=O)O)c4OB3O)CC2)CC1 [Example 24, (R)-3-(2-(trans-4-(4-carbamimidoylpiperazin-1-yl)cyclohexyl)acetamido)-2-hydroxy-3,4-dihydro-2H-benzo[e][1,2]oxaborinine-8-carboxylic acid]",< 4,< 4,< 4,< 4,8 to 32,< 4,< 100
